Assay results: ChEMBL document CHEMBL1201861, “Genomics of Drug Sensitity in Cancer screening data, Wellcome Trust Sanger Institute”
pIC50: −log10 of the molar value.

Legend:
Assay in all cases: cells
HCE-T = format: functional, cell-based, Homo sapiens; conditions: Homo sapiens, HCE-T;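 note: cell viability assay read-out, reporting inhibition of HCE-T cell growth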
Description: SANGER: Inhibition of human HCE-T cell growth in a cell viability assay.

TE-8 = format: functional, cell-based, Homo sapiens; conditions: Homo sapiens, TE-8;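 note: growth inhibition of TE-8 cells, measured with a cell viability readout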
Description: SANGER: Inhibition of human TE-8 cell growth in a cell viability assay.

SNB-75 = format: functional, cell-based, Homo sapiens; conditions: Homo sapiens, SNB-75;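 note: cell viability assay measuring growth inhibition of human SNB-75 cells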
Description: SANGER: Inhibition of human SNB75 cell growth in a cell viability assay.

COLO-829 = format: functional, cell-based, Homo sapiens; conditions: Homo sapiens, COLO-829
Description: SANGER: Inhibition of human COLO-829 cell growth in a cell viability assay.

C2BBe1 = format: functional, cell-based, Homo sapiens; conditions: Homo sapiens, C2BBe1;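 note: growth inhibition of C2BBe1 cells, read out through a viability assay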
Description: SANGER: Inhibition of human C2BBe1 cell growth in a cell viability assay.

LS-123 = format: functional, cell-based, Homo sapiens; conditions: Homo sapiens, LS-123
NCI-H226 = format: functional, cell-based, Homo sapiens; conditions: Homo sapiens, NCI-H226;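 note: cell viability read-out used to gauge growth inhibition of the cells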
Description: SANGER: Inhibition of human NCI-H226 cell growth in a cell viability assay.

DJM-1 = format: functional, cell-based, Homo sapiens; conditions: Homo sapiens, DJM-1;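 note: growth inhibition of human DJM-1 cells, read out by a cell viability assay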
Description: SANGER: Inhibition of human DJM-1 cell growth in a cell viability assay.

OCUB-M = format: functional, cell-based, Homo sapiens; conditions: Homo sapiens, OCUB-M;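 note: growth inhibition of the cancer cell line, read out through a cell viability assay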
Description: SANGER: Inhibition of human OCUB-M cell growth in a cell viability assay.

KURAMOCHI = format: functional, cell-based; conditions: Homo sapiens;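 note: growth inhibition of KURAMOCHI cells, read out with a cell viability assay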
Description: SANGER: Inhibition of human KURAMOCHI cell growth in a cell viability assay.

LB2241-RCC = format: functional, cell-based, Homo sapiens; conditions: Homo sapiens, LB2241-RCC;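 note: cell viability assay measuring how strongly the cultured human renal carcinoma line is prevented from growing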
Description: SANGER: Inhibition of human LB2241-RCC cell growth in a cell viability assay.

LNCaP-Clone-FGC = format: functional, cell-based, Homo sapiens; conditions: Homo sapiens, LNCaP-Clone-FGC
TE-1 = format: functional, cell-based, Homo sapiens; conditions: Homo sapiens, TE-1;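 note: growth inhibition of the human TE-1 cell line, read out with a cell viability assay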
Description: SANGER: Inhibition of human TE-1 cell growth in a cell viability assay.

ES6 = format: functional, cell-based, Homo sapiens; conditions: Homo sapiens, ES6;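 note: growth inhibition of human ES6 cells, read out with a cell viability assay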
Description: SANGER: Inhibition of human ES6 cell growth in a cell viability assay.

COLO-800 = format: functional, cell-based, Homo sapiens; conditions: Homo sapiens, COLO-800;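 note: growth inhibition of COLO-800 cells, read out with a cell viability assay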
Description: SANGER: Inhibition of human COLO-800 cell growth in a cell viability assay.

OS-RC-2 = format: functional, cell-based, Homo sapiens; conditions: Homo sapiens, OS-RC-2;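 note: growth inhibition of human OS-RC-2 cells, measured by a cell viability assay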
Description: SANGER: Inhibition of human OS-RC-2 cell growth in a cell viability assay.

NCI-H510A = format: functional, cell-based; conditions: Homo sapiens;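 note: growth inhibition of NCI-H510A cells, read out with a cell viability assay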
DU-4475 = format: functional, cell-based; conditions: Homo sapiens
Description: SANGER: Inhibition of human DU-4475 cell growth in a cell viability assay.

BB65-RCC = format: functional, cell-based, Homo sapiens; conditions: Homo sapiens, BB65-RCC;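 note: growth inhibition of the cell line, measured with a cell viability assay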
Description: SANGER: Inhibition of human BB65-RCC cell growth in a cell viability assay.

SJSA-1 = format: functional, cell-based, Homo sapiens; conditions: Homo sapiens, SJSA-1;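 note: growth inhibition of human SJSA-1 cells, read out through a cell viability measurement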
Description: SANGER: Inhibition of human SJSA-1 cell growth in a cell viability assay.

SK-N-DZ = format: functional, cell-based, Homo sapiens; conditions: Homo sapiens, SK-N-DZ;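 note: growth inhibition of the cancer cell line, read out through a viability assay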
Description: SANGER: Inhibition of human SK-N-DZ cell growth in a cell viability assay.

| SMILES | pIC50 (HCE-T) | pIC50 (TE-8) | pIC50 (SNB-75) | pIC50 (COLO-829) | pIC50 (C2BBe1) | pIC50 (LS-123) | pIC50 (NCI-H226) | pIC50 (DJM-1) | pIC50 (OCUB-M) | pIC50 (LB2241-RCC) | pIC50 (LNCaP-Clone-FGC) | pIC50 (TE-1) | pIC50 (ES6) | pIC50 (COLO-800) | pIC50 (OS-RC-2) | pIC50 (NCI-H510A) | pIC50 (DU-4475) | pIC50 (BB65-RCC) | pIC50 (SJSA-1) | pIC50 (SK-N-DZ) | other results |
| --- | --- | --- | --- | --- | --- | --- | --- | --- | --- | --- | --- | --- | --- | --- | --- | --- | --- | --- | --- | --- | --- |
| C=C1C(=O)O[C@@H]2C3O[C@]3(C)CC/C=C(\C)CC[C@@H]12 (some centres undefined) | < 5.30 | < 5.30 | < 5.30 | < 5.30 | < 5.30 | < 5.30 | < 5.30 | < 5.30 | < 5.30 | < 5.30 | < 5.30 | < 5.30 | < 5.30 | < 5.30 | < 5.30 | < 5.30 | < 5.30 | < 5.30 | < 5.30 | 5.33 | pIC50 (KURAMOCHI): < 5.30 |
| CC1=C2C[C@H]3[C@@H](CC=C4C[C@@H](O)CC[C@@]43C)[C@@H]2CC[C@]12O[C@@H]1C[C@H](C)CN[C@H]1[C@H]2C [CYCLOPAMINE] | < 4.80 | < 4.80 | < 4.80 | < 4.80 | < 4.80 | < 4.80 | < 4.80 | < 4.80 | < 4.80 | < 4.80 | < 4.80 | < 4.80 | < 4.80 | < 4.80 | 5.23 | < 4.80 | < 4.80 | < 4.80 | < 4.80 | < 4.80 |  |
| CS(=O)(=O)CCNCc1ccc(-c2ccc3ncnc(Nc4ccc(OCc5cccc(F)c5)c(Cl)c4)c3c2)o1 [LAPATINIB] | < 5.70 | < 5.70 | < 5.70 | < 5.70 | < 5.70 | < 5.70 | < 5.70 | < 5.70 | 7.24 | 5.94 | < 5.70 | < 5.70 | < 5.70 | < 5.70 | 5.70 | < 5.70 | < 5.70 | < 5.70 | < 5.70 | < 5.70 | pIC50 (KURAMOCHI): < 5.70 |
| CCc1nc(N)nc(N)c1-c1ccc(Cl)cc1 [PYRIMETHAMINE] | < 4.70 | < 4.70 | < 4.70 | 5.14 | < 4.70 | < 4.70 | < 4.70 | < 4.70 | < 4.70 | < 4.70 | < 4.70 | 5.00 | 4.76 | < 4.70 | 5.58 | < 4.70 | < 4.70 | < 4.70 | 5.42 | < 4.70 | pIC50 (KURAMOCHI): < 4.70 |
| O=C(/C=C/c1ccccc1)NC(NC(=S)Nc1cccc2cccnc12)C(Cl)(Cl)Cl (centres undefined) [SALUBRINAL] | < 4.80 | < 4.80 | < 4.80 | < 4.80 | < 4.80 | < 4.80 | < 4.80 | < 4.80 | < 4.80 | 5.30 | < 4.80 | < 4.80 | < 4.80 | < 4.80 | < 4.80 | 5.15 | < 4.80 | < 4.80 | < 4.80 | < 4.80 | pIC50 (KURAMOCHI): < 4.80 |
| CN1CCN(CCOc2cc(OC3CCOCC3)c3c(Nc4c(Cl)ccc5c4OCO5)ncnc3c2)CC1 [SARACATINIB] | < 5.70 | 6.06 | < 5.70 | < 5.70 | 5.92 | < 5.70 | < 5.70 | < 5.70 | < 5.70 | < 5.70 | < 5.70 | 5.84 | < 5.70 | < 5.70 | 5.72 | < 5.70 | < 5.70 | < 5.70 | < 5.70 | 5.73 | pIC50 (KURAMOCHI): < 5.70 |
| CO[C@H]1C[C@@H]2CC[C@@H](C)[C@@](O)(O2)C(=O)C(=O)N2CCCC[C@H]2C(=O)O[C@H]([C@H](C)C[C@@H]2CC[C@@H](O)[C@H](OC)C2)CC(=O)[C@H](C)/C=C(\C)[C@@H](O)[C@@H](OC)C(=O)[C@H](C)C[C@H](C)/C=C/C=C/C=C/1C [SIROLIMUS] | < 7.00 | < 7.00 | < 7.00 | < 7.00 | < 7.00 | < 7.00 | < 7.00 | < 7.00 | > 9.41 | < 7.00 | < 7.00 | < 7.00 | 8.46 | < 7.00 | 9.19 | < 7.00 | < 7.00 | < 7.00 | < 7.00 | < 7.00 | pIC50 (KURAMOCHI): < 7.00 |
| CNC(=O)c1cc(Oc2ccc(NC(=O)Nc3ccc(Cl)c(C(F)(F)F)c3)cc2)ccn1 [SORAFENIB] | < 5.40 | < 5.40 | < 5.40 | < 5.40 | < 5.40 | < 5.40 | < 5.40 | < 5.40 | < 5.40 | < 5.40 | < 5.40 | < 5.40 | < 5.40 | < 5.40 | < 5.40 | < 5.40 | < 5.40 | 6.33 | < 5.40 | < 5.40 | pIC50 (KURAMOCHI): < 5.40 |
| CCC(=O)N1CCN(c2ccc(-n3c(=O)ccc4cnc5ccc(-c6cnc7ccccc7c6)cc5c43)cc2C(F)(F)F)CC1 [TORIN1] | 6.96 | 7.04 | 7.20 | 6.68 | 6.86 | 7.23 | < 5.92 | < 5.92 | 8.71 | < 5.92 | < 5.92 | 6.55 | 7.97 | < 5.92 | 7.63 | 6.11 | 7.04 | 7.43 | 7.38 | 6.83 | pIC50 (KURAMOCHI): 7.62 |
| Cc1cc(Nc2cc(N3CCN(C)CC3)nc(Sc3ccc(NC(=O)C4CC4)cc3)n2)n[nH]1 [TOZASERTIB] | < 5.70 | 5.74 | < 5.70 | < 5.70 | < 5.70 | < 5.70 | < 5.70 | < 5.70 | 6.77 | < 5.70 | < 5.70 | < 5.70 | < 5.70 | < 5.70 | < 5.70 | 6.36 | 5.99 | 5.93 | < 5.70 | 6.02 | pIC50 (KURAMOCHI): 5.75 |
